Laboratory results reported in ChEMBL document CHEMBL6071177, “Medium-Ring Keto Bislactams with Antischistosomal Activity” (J Med Chem, 2024).
pIC50: −log10 of the molar value. ≈ marks a conversion by molar mass, not a printed value.

Legend:
[1] = Lipophilicity, logD of compound at pH 7.4 by HPLC analysis; type: physicochemical; conditions: buffer
[2] = Solubility of compound in 0.01 M HCl at pH 2.0 by nephelometry; type: physicochemical
[3] = Solubility of compound in phosphate buffer at pH 6.5 by nephelometry; type: physicochemical
Schistosoma mansoni [4] = test: Anti-schistosomal activity against newly transformed Schistosoma mansoni assessed as parasite viability at 10 uM measured after 3 days relative to control; type: functional; conditions: time 3 day
Schistosoma mansoni [5] = test: Anti-schistosomal activity against adult Schistosoma mansoni assessed as parasite viability at 10 uM measured after 3 days relative to control; type: functional; conditions: time 3 day
[6] = Cytotoxicity against rat L6 cells; type: toxicity, cell-based
[7] = Intrinsic clearance in human liver microsomes
[8] = Intrinsic clearance in mouse liver microsomes
[9] = Half life in Swiss mouse at 100 mg/kg, po measured upto 48 hrs by LC-MS analysis; type: ADME, organism-based; conditions: in vivo
[10] = AUC (0 to 24 hrs) in Swiss mouse at 100 mg/kg, po measured upto 48 hrs by LC-MS analysis; type: ADME, organism-based; conditions: in vivo
[11] = Cmax in Swiss mouse at 100 mg/kg, po measured upto 48 hrs by LC-MS analysis; type: ADME, organism-based; conditions: in vivo
Schistosoma mansoni [12] = test: Ex vivo anti-schistosomal activity against adult Schistosoma mansoni assessed as inhibition of parasite viability measured after 3 days; type: functional, organism-based; conditions: 72 h

Row | logD [1] | solubility kinetic [2] | solubility kinetic [3] | CLH [7] | CLH [8] | t1/2 [9] | AUC [10] | Cmax [11] | pIC50 (Schistosoma mansoni [12]) | SMILES | Activity (Schistosoma mansoni [4]) | Activity (Schistosoma mansoni [5]) | pIC50 [6]
1 | 1.4 | 160 µM (≈ 51.9 µg/mL) | 160 µM (≈ 51.9 µg/mL) | – | – | – | – | – | – | O=C1CCN2C(=O)c3ccccc3C2C(=O)Nc2cc(F)ccc21 (configuration not stated) | 15% | 39% | < 3.52
2 | 1.7 | 160 µM (≈ 51.3 µg/mL) | 160 µM (≈ 51.3 µg/mL) | 34 µL/min/mg | 136 µL/min/mg | – | – | – | – | CC12C(=O)Nc3ccccc3C(=O)CCN1C(=O)c1ccccc12 (configuration not stated) | 25% | 35% | < 3.52
3 | 1.7 | 80 µM (≈ 27.4 µg/mL) | 160 µM (≈ 54.8 µg/mL) | – | – | – | – | – | – | O=C1CCN2C(C(=O)Nc3ccccc31)c1ccccc1S2(=O)=O (configuration not stated) | 27% | 44% | 3.89
4 | 1.4 | 160 µM (≈ 51.9 µg/mL) | > 320 µM | 45.4 µL/min/mg | 258 µL/min/mg | – | – | – | – | O=C1CCN2C(=O)c3ccccc3C2C(=O)Nc2ccc(F)cc21 (configuration not stated) | 30% | 40% | < 3.51
5 | 1.8 | > 320 µM | > 320 µM | 21.7 µL/min/mg | 38.2 µL/min/mg | – | – | – | – | O=C1CCn2c(nc3ccccc3c2=O)C(=O)Nc2ccccc21 | 31% | 20% | 4.28
6 | 1.6 | > 320 µM | > 320 µM | 13.2 µL/min/mg | 80.3 µL/min/mg | – | – | – | – | CO/N=C1/CCN2C(=O)c3ccccc3C2C(=O)Nc2ccccc21 (configuration not stated) | 33% | 41% | < 3.52
7 | < 0 | 160 µM (≈ 41.3 µg/mL) | > 320 µM | 17 µL/min/mg | 35 µL/min/mg | – | – | – | – | O=C1CCN2C(=O)CCC2C(=O)Nc2ccccc21 (configuration not stated) | 13% | 31% | < 3.41
8 | 1.8 | 160 µM (≈ 54.5 µg/mL) | > 320 µM | 101 µL/min/mg | 413 µL/min/mg | – | – | – | – | O=C1CCN2C(=O)c3ccccc3C2C(=O)Nc2ccc(Cl)cc21 (configuration not stated) | 38% | 40% | 3.66
9 | 2.3 | > 320 µM | > 320 µM | 97.4 µL/min/mg | 212 µL/min/mg | – | – | – | – | O=C1CCN2C(=O)c3cc4ccccc4cc3C2C(=O)Nc2ccccc21 (configuration not stated) | 48% | 40% | 4.01
10 | 2.4 | 80 µM (≈ 30 µg/mL) | 160 µM (≈ 60 µg/mL) | – | – | – | – | – | – | O=C1CCN2C(=O)c3cc(Cl)c(Cl)cc3C2C(=O)Nc2ccccc21 (configuration not stated) | 31% | 40% | 3.72
11 | 0.9 | 40 µM (≈ 12.3 µg/mL) | 40 µM (≈ 12.3 µg/mL) | < 7 µL/min/mg | < 7 µL/min/mg | – | – | – | – | O=C1c2ccccc2C23C(=O)Nc4ccccc4C2(O)CCN13 (configuration not stated) | 18% | 48% | < 3.48
12 | 1.4 | > 320 µM | > 320 µM | 22.3 µL/min/mg | 43.7 µL/min/mg | – | – | – | – | O=C1CCN2C(=O)[C@H]3CCCC[C@H]3C2C(=O)Nc2ccccc21 (some centres not stated) | 50% | 25% | 3.66
13 | 0.8 | 80 µM (≈ 26.9 µg/mL) | 80 µM (≈ 26.9 µg/mL) | 19.6 µL/min/mg | 61.6 µL/min/mg | – | – | – | – | O=C1C[C@@H](CO)N2C(=O)c3ccccc3C2C(=O)Nc2ccccc21 (some centres not stated) | 38% | 47% | 3.64
14 | 1.7 | 160 µM (≈ 54.8 µg/mL) | > 320 µM | 21.5 µL/min/mg | 35.6 µL/min/mg | – | – | – | – | O=C1CCN2C(=O)c3ccccc3C2C(=O)Nc2cc(F)cc(F)c21 (configuration not stated) | 23% | 40% | 3.70
15 | 1.5 | > 320 µM | > 320 µM | 57.1 µL/min/mg | 280 µL/min/mg | – | – | – | – | COc1ccc2c(c1)C(=O)CCN1C(=O)c3ccccc3C1C(=O)N2 (configuration not stated) | 50% | 42% | 3.89
16 | 2 | 160 µM (≈ 60.5 µg/mL) | 160 µM (≈ 60.5 µg/mL) | – | – | – | – | – | – | O=C1CCN2C(=O)c3c(F)c(F)c(F)c(F)c3C2C(=O)Nc2ccccc21 (configuration not stated) | 36% | 30% | 4.01
17 | 1 | 80 µM (≈ 27.4 µg/mL) | > 160 µM | 4.6 µL/min/mg | 11.6 µL/min/mg | – | – | – | – | O=C1Nc2ccccc2C2(O)CCN3C12c1ccccc1S3(=O)=O (configuration not stated) | 47% | 61% | < 3.54
18 | 1.4 | 80 µM (≈ 25.8 µg/mL) | 160 µM (≈ 51.6 µg/mL) | 23.2 µL/min/mg | 90.5 µL/min/mg | – | – | – | – | COC1CCN2C(=O)c3ccccc3C2C(=O)Nc2ccccc21 (configuration not stated) | 25% | 31% | < 3.51
19 | 2 | 40 µM (≈ 13 µg/mL) | 40 µM (≈ 13 µg/mL) | 11 µL/min/mg | 45.8 µL/min/mg | – | – | – | – | O=c1c2c([nH]c3ccccc13)C1c3ccccc3S(=O)(=O)N1C2 (configuration not stated) | 22% | 47% | 3.70
20 | 1.2 | 160 µM (≈ 49 µg/mL) | > 320 µM | 27 µL/min/mg | 84 µL/min/mg | 4.4 h | 810 ng·h/mL | 189 ng/mL | 5.60 | O=C1CCN2C(=O)c3ccccc3C2C(=O)Nc2ccccc21 (configuration not stated) | 51% | 61% | < 3.48
21 | 1.7 | 80 µM (≈ 29.1 µg/mL) | 160 µM (≈ 58.3 µg/mL) | 55.5 µL/min/mg | 102 µL/min/mg | – | – | – | – | COC(=O)[C@@H]1CC(=O)c2ccccc2NC(=O)C2c3ccccc3C(=O)N21 (some centres not stated) | 50% | 27% | < 3.57
22 | 1.7 | > 320 µM | 160 µM (≈ 54.8 µg/mL) | – | – | – | – | – | – | O=C1CCN2C(=O)c3cc(F)c(F)cc3C2C(=O)Nc2ccccc21 (configuration not stated) | 37% | 34% | < 3.54
23 | 2 | 40 µM (≈ 15.1 µg/mL) | 40 µM (≈ 15.1 µg/mL) | 55.6 µL/min/mg | 118 µL/min/mg | – | – | – | – | CCOC(=O)c1ccc2c(c1)C(=O)CCN1C(=O)c3ccccc3C1C(=O)N2 (configuration not stated) | 21% | 38% | < 3.59
24 | 1.2 | 160 µM (≈ 58.6 µg/mL) | > 320 µM | 20.7 µL/min/mg | 37.4 µL/min/mg | – | – | – | – | COc1cc2c(cc1OC)C1C(=O)Nc3ccccc3C(=O)CCN1C2=O (configuration not stated) | 23% | 38% | 3.82
25 | 1.9 | > 320 µM | > 320 µM | 71 µL/min/mg | 174 µL/min/mg | – | – | – | – | CN1C(=O)C2c3ccccc3C(=O)N2CCC(=O)c2ccccc21 (configuration not stated) | 23% | 39% | < 3.52
26 | 1.5 | 160 µM (≈ 46.8 µg/mL) | > 320 µM | 35.7 µL/min/mg | 100 µL/min/mg | – | – | – | – | O=C1Nc2ccccc2CCCN2C(=O)c3ccccc3C12 (configuration not stated) | 48% | 31% | < 3.47
27 | 3 | > 320 µM | > 320 µM | – | – | – | – | – | – | O=C(C1CCCCC1)N1CC(=O)N2CCc3ccccc3C2C1 (configuration not stated) [PRAZIQUANTEL] | 78% | 100% | –
